According to article PMC3551575 (Molecular microbiology, 2011):

Columns and labels:
[1] = molecular target: T1, FurX (Cupriavidus pinatubonensis, UniProt Q46UZ9); assay: affinity measurement, method only in supplement; type: binding
T1 sequence (Q46UZ9 1-342): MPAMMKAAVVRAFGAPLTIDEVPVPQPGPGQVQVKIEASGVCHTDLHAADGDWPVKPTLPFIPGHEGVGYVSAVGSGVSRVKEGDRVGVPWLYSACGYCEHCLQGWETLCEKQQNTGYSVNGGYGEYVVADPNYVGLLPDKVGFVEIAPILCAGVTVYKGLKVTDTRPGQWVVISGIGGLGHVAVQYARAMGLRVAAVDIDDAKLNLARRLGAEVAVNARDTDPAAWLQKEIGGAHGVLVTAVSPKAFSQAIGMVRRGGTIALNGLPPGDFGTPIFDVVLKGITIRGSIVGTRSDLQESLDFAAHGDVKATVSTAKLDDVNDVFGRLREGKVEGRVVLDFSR

[2] = molecular target: FurX, Zn-dependent alcohol dehydrogenase from Cupriavidus necator JMP134 (Cupriavidus necator JMP134); assay: SEC-MALS

Row | Compound | Kd [1] [µM] | stoichiometry N [2]
1 | NC(=O)c1ccc[n+]([C@@H]2O[C@H](COP(=O)(O)OP(=O)(O)OC[C@H]3O[C@@H](n4cnc5c(N)ncnc54)[C@H](O)[C@@H]3O)[C@@H](O)[C@H]2O)c1 [NAD^+] | 87 | –
2 | OCc1ccco1 [furfuryl alcohol] | > 1000 | –
3 | FurX, Zn-dependent alcohol dehydrogenase from Cupriavidus necator JMP134 (enzyme) | – | 4
